# Source: US20230133657A1, “THE USE OF MENTHOL FOR THE PREPARATION OF A TOPICAL COMPOSITION TO IMPROVE NEURODEGENERATIVE DISEASE AND STROKE” (CHINA MEDICAL UNIVERSITY, priority 2020, published 2023)
# Experiments:
# [1] = system: ischemic stroke mice (MCAO); experiment: Adhesive removal test, ischemic stroke mouse model; assay type: in vivo
# Source text: Laboratory mice are divided into four groups: “Control” consisting of mice processed through MCAO for the ischemic stroke; “Water” consisting of mice which are processed for the ischemic stroke through MCAO and whose limbs are soaked in water; “MCAO+8% ME” consisting of mice which are processed for the ischemic stroke through MCAO and whose limbs are soaked in 8% menthol; “MCAO+16% ME” consisting of mice which are processed for the ischemic stroke through MCAO and whose limbs are soaked in 16% menthol. In Embodiment 2, menthol is prepared with 95% ethanol. Referring to the experiment schedule in FIG. 2A, mice are sacrificed on Day 7 for following analyses. Mice are processed for the ischemic stroke through MCAO on Day 0 and administrated with menthol once per day from Day 0 to Day 6. On the day of processing mice through MCAO, the limbs of a mouse resting 20 minutes after the operation are soaked in menthol for one minute; a mouse's limbs are soaked in menthol for 15 seconds only from Day 2 to Day 6; comparatively, a Water mouse's limbs are soaked in water. The sensorimotor nerve function test is conducted for mice one day before MCAO processing (i.e., pre-MCAO) and 1, 3 and 6 days after MCAO processing; the cerebral infarction volume is measured for checking any improvement in the stroke due to menthol on Day 7 after MCAO processing. The adhesive removal test is conducted on Day 1, 3 and 6 and the test results are compared with status at “pre-MCAO”. As shown in the experimental process, the time of a mouse finding and removing 4 (mm)×4 (mm) stickers, which have been adhered to its forepaws outside a test cage, is recorded (FIG. 2C-1, FIG. 2C-2) for statistic analysis as described in Section 2.1 (*p<0.05; **p<0.01; ***p<0.001). […] As shown in FIGS. 4B-1 and 4B-2, the test results are analyzed with the one-way ANOVA for further reviews through the multiple comparison analysis (Duncan's method) and statistics of between-group variances (*p<0.05; *: comparison with the “Water” group; comparison with the “16% ME” group; comparison with the “8% ME” group). […]
# [2] = system: ischemic stroke mice (MCAO); experiment: Rotarod test, ischemic stroke mouse model; assay type: in vivo
# Source text: Laboratory mice are divided into four groups: “Control” consisting of mice processed through MCAO for the ischemic stroke; “Water” consisting of mice which are processed for the ischemic stroke through MCAO and whose limbs are soaked in water; “MCAO+8% ME” consisting of mice which are processed for the ischemic stroke through MCAO and whose limbs are soaked in 8% menthol; “MCAO+16% ME” consisting of mice which are processed for the ischemic stroke through MCAO and whose limbs are soaked in 16% menthol. In Embodiment 2, menthol is prepared with 95% ethanol. Referring to the experiment schedule in FIG. 2A, mice are sacrificed on Day 7 for following analyses. Mice are processed for the ischemic stroke through MCAO on Day 0 and administrated with menthol once per day from Day 0 to Day 6. On the day of processing mice through MCAO, the limbs of a mouse resting 20 minutes after the operation are soaked in menthol for one minute; a mouse's limbs are soaked in menthol for 15 seconds only from Day 2 to Day 6; comparatively, a Water mouse's limbs are soaked in water. The sensorimotor nerve function test is conducted for mice one day before MCAO processing (i.e., pre-MCAO) and 1, 3 and 6 days after MCAO processing; the cerebral infarction volume is measured for checking any improvement in the stroke due to menthol on Day 7 after MCAO processing. In the rotarod test, a mouse is placed on a self-accelerated rotating rod (rotation rate from 4 to 40 rpm) on Day 3 and Day 6 for measuring the retention time (FIG. 2B-1 and FIG. 2B-2) and comparing test results with those of “pre-MCAO”. Mice in each group are tested three times. The test results are analyzed with the one-way ANOVA for further reviews through the multiple comparison analysis (Dunnett's method) and statistics of between-group variances (*p<0.05). The asterisk (*) means a significant difference between “Control” and “Water” or “MCAO+8% ME” (*p<0.05; **p<0.01). […] As shown in FIGS. 4B-1 and 4B-2, the test results are analyzed with the one-way ANOVA for further reviews through the multiple comparison analysis (Duncan's method) and statistics of between-group variances (*p<0.05; *: comparison with the “Water” group; comparison with the “16% ME” group; comparison with the “8% ME” group). […]
# [3] = system: Parkinson's disease mice (MPTP); experiment: Immunohistochemical (IHC) staining of TH in substantia nigra; assay type: in vivo, mouse; conditions: forepaws soaked in 8% menthol
# Source text: Laboratory mice are divided into three groups: “Control” consisting of normal mice; “MPTP” consisting of Parkinson's disease mice fed with MPTP for creation of a disease model; “MPTP+8% ME” consisting of Parkinson's disease mice which are fed with MPTP for creation of a disease model and whose forepaws are soaked in 8% menthol. For administration of menthol, two forepaws of each “MPTP+8% ME” mouse are soaked in 8% (wt %) menthol solution for 10 seconds per day from Day 1 to Day 5 and from Day 8 to Day 10, respectively. For creation of a Parkinson's disease mouse model, MPTP (daily dosage: 10 mg/kg) is injected into “MPTP” and “MPTP+8% ME” mice through the intraperitoneal (I.P.) injection on three consecutive days from Day 3 to Day 5. By Day 10, the endurance exercise test, the dopamine assay and the immunohistochemical staining are conducted for any improvement in the symptom of Parkinson's disease due to menthol. The level of TH in a mouse's substantia nigra is tested through IHC staining (FIG. 1D). […] A mouse's nerve cells containing TH for generation of dopamine could be damaged due to Parkinson's disease.
# [4] = system: Parkinson's disease mice (MPTP); experiment: Rotarod test (endurance exercise test), Parkinson's disease mouse model; assay type: in vivo; conditions: forepaws soaked in 8% (wt %) menthol solution 10 seconds per day
# Source text: Laboratory mice are divided into three groups: “Control” consisting of normal mice; “MPTP” consisting of Parkinson's disease mice fed with MPTP for creation of a disease model; “MPTP+8% ME” consisting of Parkinson's disease mice which are fed with MPTP for creation of a disease model and whose forepaws are soaked in 8% menthol. For administration of menthol, two forepaws of each “MPTP+8% ME” mouse are soaked in 8% (wt %) menthol solution for 10 seconds per day from Day 1 to Day 5 and from Day 8 to Day 10, respectively. For creation of a Parkinson's disease mouse model, MPTP (daily dosage: 10 mg/kg) is injected into “MPTP” and “MPTP+8% ME” mice through the intraperitoneal (I.P.) injection on three consecutive days from Day 3 to Day 5. By Day 10, the endurance exercise test, the dopamine assay and the immunohistochemical staining are conducted for any improvement in the symptom of Parkinson's disease due to menthol. The rotarod test is a performance test in which a rodent keeps running on a self-accelerated rotating rod activated from 4 rpm (initial rotation rate) to 40 rpm (maximum and constant rotation rate in five minutes) on Day 1 (Day 10) for estimation of the retention time of the rodent on the rotating rod (FIG. 1B). As shown in the ordinate of FIG. 1B, “A latency to fall” denotes the difference between the retention time on Day 10 and the retention time on Day 1.
# [5] = system: ischemic stroke mice (MCAO); experiment: Measurement of the cerebral infarction volume (TTC staining); assay type: in vivo, mouse
# Source text: Laboratory mice are divided into four groups: “Control” consisting of mice processed through MCAO for the ischemic stroke; “Water” consisting of mice which are processed for the ischemic stroke through MCAO and whose limbs are soaked in water; “MCAO+8% ME” consisting of mice which are processed for the ischemic stroke through MCAO and whose limbs are soaked in 8% menthol; “MCAO+16% ME” consisting of mice which are processed for the ischemic stroke through MCAO and whose limbs are soaked in 16% menthol. In Embodiment 2, menthol is prepared with 95% ethanol. Referring to the experiment schedule in FIG. 2A, mice are sacrificed on Day 7 for following analyses. Mice are processed for the ischemic stroke through MCAO on Day 0 and administrated with menthol once per day from Day 0 to Day 6. On the day of processing mice through MCAO, the limbs of a mouse resting 20 minutes after the operation are soaked in menthol for one minute; a mouse's limbs are soaked in menthol for 15 seconds only from Day 2 to Day 6; comparatively, a Water mouse's limbs are soaked in water. The sensorimotor nerve function test is conducted for mice one day before MCAO processing (i.e., pre-MCAO) and 1, 3 and 6 days after MCAO processing; the cerebral infarction volume is measured for checking any improvement in the stroke due to menthol on Day 7 after MCAO processing. After a mouse in each group is sacrificed through perfusion one week after MCAO processing, a specimen of the mouse's living brain is stained by TTC (FIG. 2D-2) for measurement of the cerebral infarction volume (mm^3) (FIG. 2D-1). The test results for the cerebral infarction volume are analyzed with the one-way ANOVA for further reviews through the multiple comparison analysis (Tukey's method) and statistics of between-group variances (*p<0.05). […] Laboratory mice are divided into five groups: “Water” consisting of mice which are processed for the ischemic stroke through MCAO and whose limbs are soaked in water; “8% ME” consisting of mice which are processed for the ischemic stroke through MCAO and whose limbs are soaked in 8% menthol; “16% ME” consisting of mice which are processed for the ischemic stroke through MCAO and whose limbs are soaked in 16% menthol; “Back-ME” consisting of mice which are processed for the ischemic stroke through MCAO and whose backs are soaked in menthol; “Oral-ME” consisting of mice which are processed for the ischemic stroke through MCAO and fed with menthol. […] As shown in FIGS. 4B-1 and 4B-2, the test results are analyzed with the one-way ANOVA for further reviews through the multiple comparison analysis (Duncan's method) and statistics of between-group variances (*p<0.05; *: comparison with the “Water” group; comparison with the “16% ME” group; comparison with the “8% ME” group). […]
# [6] = MCAO mice fed with oral menthol (Oral-ME)
# [7] = MCAO mice, limbs soaked in menthol (8% ME, 16% ME), topical vs oral comparison
smiles,measurement,setting,value
CC1CCC(C(C)C)C(O)C1 (stereo not shown) [menthol],time spent in removing stickers,"[1]; limbs soaked in 8% or 16% menthol, Day 1, 3 and 6",significantly shorter than time spent by Control or Water mice
same,time spent in finding stickers,"[1]; limbs soaked in 8% or 16% menthol, Day 6, vs Water mice",significantly less time
same,time spent in finding and removing stickers,"[1]; limbs soaked in menthol (8% ME, 16% ME), vs Water, Back-ME, Oral-ME",significantly shorter than other mice
same,retention time on a rotating rod,[2]; [6],not extended effectively
same,retention time on a rotating rod,"[2]; MCAO mice, backs administered with topical menthol (Back-ME)",not extended effectively
same,retention time on a rotating rod,"[2]; MCAO mice, limbs soaked in 8% or 16% menthol once per day Day 0 to Day 6, Day 3 and Day 6",longer than the retention time performed by MCAO or Water mice
same,retention time on a rotating rod,[2]; [7],"longer than the retention time performed by Back-ME, Water or Oral-ME mice"
same,level of TH in substantia nigra,[3],recovered and similar to that of Control mice
same,"retention time on a rotating rod (latency to fall, Day 10 vs Day 1)",[4],longer than the retention time on Day 1
same,cerebral infarction volume,[5]; [6],unchanged
same,cerebral infarction volume,"[5]; MCAO mice, backs administered with menthol (Back-ME)",unchanged
same,cerebral infarction volume,"[5]; MCAO mice, limbs soaked in 8% or 16% menthol, Day 7, TTC staining, vs Control and Water groups",significantly decreases
same,cerebral infarction volume,[5]; [7],significantly subdued
